# Columns and labels:
# Type in all cases: in vivo
# [1] = tested on: peach aphid (Myzus persicae); experiment: Myzus Test; conditions: 1000 ppm, cabbage leaves dipped
# Method: • Solvent: 7 parts by weight of dimethylformamide • Emulsifier: 1 part by weight of alkylaryl polyglycol ether
# (§1) To produce a suitable preparation of active compound, 1 part by weight of active compound is mixed with the stated amounts of solvent and emulsifier, and the concentrate is diluted with emulsifier-containing water to the desired concentration.
# Cabbage leaves (Brassica oleracea) which are heavily infested by the peach aphid (Myzus persicae) are treated by being dipped into the preparation of active compound of the desired concentration.
# After the desired period of time, the kill in % is determined. 100% means that all aphids have been killed; 0% means that none of the aphids have been killed.
# Meloidogyne incognita = experiment: Meloidogyne Test; conditions: 20 ppm, nematicidal action by formation of galls on lettuce roots
# Method: (§2) • Solvent: 30 parts by weight of dimethylformamide • Emulsifier: 1 part by weight of alkylaryl polyglycol ether
# To produce a suitable preparation of active compound, 1 part by weight of active compound is mixed with the stated amount of solvent and emulsifier, and the concentrated is diluted with water to the desired concentration.
# Vessels are filled with sand, solution of active compound, Meloidogyne incognita egg/larvae suspension and lettuce seeds. The lettuce seeds germinate and the plants develop. On the roots galls are formed.
# After the desired period of time, the nematicidal action is determined in % by the formation of galls. 100% means that no galls have been found; 0% means that the number of galls on the treated plants corresponds to that of the untreated control.
# [2] = tested on: larvae of the mustard beetle (Phaedon cochleariae); experiment: Phaedon Larvae Test; conditions: 1000 ppm, cabbage leaves dipped
# Method: Phaedon Larvae Test • Solvent: 30 parts by weight of dimethylformamide • Emulsifier: 1 part by weight of alkylaryl polyglycol ether To produce a suitable preparation of active compound, 1 part by weight of active compound is mixed with the stated amount of solvent and emulsifier, and the concentrate is diluted with emulsifier-containing water to the desired concentration. Cabbage leaves (Brassica oleracea) are treated by being dipped into the preparation of active compound of the desired concentration and are populated with larvae of the mustard beetle (Phaedon cochleariae) while the leaves are still moist.
# [3] = tested on: greenhouse red spider mite (Tetranychus urticae); experiment: Tetranychus Test (OP-resistent/dip treatment); conditions: 500 ppm, bean plants dipped, OP-resistent
# Method: Tetranychus Test (OP-Resistent/Dip Treatment)
# as §2, §1
# Bean plants (Phaseolus vulgaris) which are heavily infested by all stages of the greenhouse red spider mite (Tetranychus urticae) are dipped into a preparation of active compound of the desired concentration.
# After the desired period of time, the effect in % is determined. 100% means that all spider mites have been killed; 0% means that none of the spider mites have been killed.
# [4] = tested on: caterpillars of the diamond back moth (Plutella xylostella); experiment: Plutella Test; conditions: 8 ppm, cabbage leaves dipped
# Method: as §2, §1
# Cabbage leaves (Brassica oleracea) are treated by being dipped into the preparation of active compound of the desired concentration and are populated with caterpillars of the diamond back moth (Plutella xylostella) while the leaves are still moist.
# After the desired period of time, the kill in % is determined. 100% means that all caterpillars have been killed; 0% means that none of the caterpillars have been killed.
smiles,measurement,setting,value
Fc1cccc(F)c1C1=NC(c2cc3ccccc3s2)CC1 (stereo not shown) [drawing 86],Kill rate in % after 6 d,[1],95%
Fc1cccc(F)c1C1=NC(c2ccc(-c3cccc(OC(F)(F)F)c3)s2)CC1 (stereo not shown) [drawing 85],Kill rate in % after 14 d,Meloidogyne incognita,98%
Cc1ccsc1C1CCC(c2c(F)cccc2F)=N1 (stereo not shown) [drawing 87],Kill rate in % after 7 d,[2],100%
Fc1cccc(F)c1C1=NC(c2cc(-c3ccc(OC(F)(F)F)cc3)cs2)CC1 (stereo not shown) [drawing 89],Kill rate in % after 7 d,[2],100%
Fc1cccc(F)c1C1=NC(c2ccc(-c3cccc(OC(F)(F)F)c3)s2)CC1 (stereo not shown) [drawing 88],Kill rate in % after 7 d,[2],100%
Fc1cccc(F)c1C1=NC(c2cc3sc(-c4ccc(OC(F)(F)F)cc4)cc3s2)CC1 (stereo not shown) [drawing 97],Kill rate in % after 7 d,[3],80%
Fc1cccc(F)c1C1=NC(c2ccc(-c3ccc(OC(F)(F)F)cc3)s2)CC1 (stereo not shown) [drawing 90],Kill rate in % after 6 d,[4],90%

# Reference: patent publication US7186722B2, “2-heteroaryl-3,4-dihydro-2h-pyrrole derivatives and the use thereof as pesticides” (Bayer Cropscience AG, priority 2001, dated 2007)
